Measured values from ChEMBL document CHEMBL1759948, “Use of the NEO strategy (Nucleophilic addition/Epoxide Opening) for the synthesis of a new C-galactoside ester analogue of KRN 7000” (2011).

What was measured:
Assay type in all cases: functional
[1] = species: Mus musculus; assay: Ratio of induction of IFN-gamma production to induction of IL-4 production in BALB/c mouse after 6 hrs
[2] = species: Mus musculus; assay: Induction of IL-4 production in BALB/c mouse after 6 hrs by ELISA
[3] = species: Mus musculus; assay: Induction of IFN-gamma production in BALB/c mouse after 6 hrs by ELISA

CCCCCCCCCCCCCCCCCCCCCCCCCC(=O)O[C@H](CCCCCCCCCCCCCC)[C@@H](O)[C@@H](O)CC[C@H]1O[C@H](CO)[C@H](O)[C@H](O)[C@H]1O
Ratio [1]: 1.37
Activity [2]: 83 pg/mL
Activity [3]: 90 pg/mL

CCCCCCCCCCCCCCCCCCCCCCCCCC(=O)N[C@@H](CO[C@H]1O[C@H](CO)[C@H](O)[C@H](O)[C@H]1O)[C@H](O)[C@H](O)CCCCCCCCCCCCCC [RGI-7000]
Ratio [1]: 8.35
Activity [2]: 1450 pg/mL
Activity [3]: 12145 pg/mL
